EP4722207A1, “OXOISOINDOLINYL-SUBSTITUTED TETRAHYDROPYRIMIDINEDIONE DERIVATIVE AND USE THEREOF” (Gluetacs Therapeutics (Shanghai) Co., Ltd., priority 2023, dated 2024)

Key:
Type in all cases: cell-based
WEE1 = target: T1, WEE1 (Homo sapiens, UniProt P30291+Q96SW2); assay: Western-blot assay, substrate protein degradation in hPBMCs: WEE1; settings: for WEE1 substrate protein remaining %: compounds at 50 nM and 500 nM, 24 hours; for substrate protein remaining % WEE1: 24 hours of compound treatment, 50 nM and 500 nM
T1 construct: effects of the compounds of the present disclosure on the expression of target proteins in cells; endogenous in cells; host or cells: human PBMCs (hPBMCs)
T1 sequence (P30291 whole entry): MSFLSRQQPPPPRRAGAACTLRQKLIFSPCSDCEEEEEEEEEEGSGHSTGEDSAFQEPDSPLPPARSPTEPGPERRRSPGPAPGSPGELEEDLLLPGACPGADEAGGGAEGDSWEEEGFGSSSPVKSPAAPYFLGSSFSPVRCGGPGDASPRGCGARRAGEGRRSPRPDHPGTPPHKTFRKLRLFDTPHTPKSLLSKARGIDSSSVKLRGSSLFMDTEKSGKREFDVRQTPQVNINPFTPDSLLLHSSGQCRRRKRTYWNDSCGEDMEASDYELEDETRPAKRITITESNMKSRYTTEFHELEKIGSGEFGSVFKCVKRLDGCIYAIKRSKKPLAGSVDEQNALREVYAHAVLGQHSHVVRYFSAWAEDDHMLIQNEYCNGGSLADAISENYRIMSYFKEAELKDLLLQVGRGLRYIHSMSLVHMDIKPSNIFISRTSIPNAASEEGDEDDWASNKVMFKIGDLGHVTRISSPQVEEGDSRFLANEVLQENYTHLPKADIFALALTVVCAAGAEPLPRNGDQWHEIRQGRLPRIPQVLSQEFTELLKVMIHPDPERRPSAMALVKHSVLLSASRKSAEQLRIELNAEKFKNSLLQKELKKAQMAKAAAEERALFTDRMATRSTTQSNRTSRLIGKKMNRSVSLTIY
T1 sequence (Q96SW2 whole entry): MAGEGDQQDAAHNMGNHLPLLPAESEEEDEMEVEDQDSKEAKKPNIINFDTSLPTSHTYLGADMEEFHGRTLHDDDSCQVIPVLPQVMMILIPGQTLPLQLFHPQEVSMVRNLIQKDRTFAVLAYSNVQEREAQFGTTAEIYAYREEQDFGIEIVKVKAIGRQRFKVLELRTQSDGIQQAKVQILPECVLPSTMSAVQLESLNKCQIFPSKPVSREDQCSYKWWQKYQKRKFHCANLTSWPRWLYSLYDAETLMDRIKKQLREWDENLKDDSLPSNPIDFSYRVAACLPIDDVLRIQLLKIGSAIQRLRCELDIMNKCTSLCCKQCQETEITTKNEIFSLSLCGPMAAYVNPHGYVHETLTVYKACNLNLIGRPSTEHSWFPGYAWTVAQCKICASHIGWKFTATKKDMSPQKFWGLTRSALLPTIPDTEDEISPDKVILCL
T1 sequence (Q16531 whole entry partner): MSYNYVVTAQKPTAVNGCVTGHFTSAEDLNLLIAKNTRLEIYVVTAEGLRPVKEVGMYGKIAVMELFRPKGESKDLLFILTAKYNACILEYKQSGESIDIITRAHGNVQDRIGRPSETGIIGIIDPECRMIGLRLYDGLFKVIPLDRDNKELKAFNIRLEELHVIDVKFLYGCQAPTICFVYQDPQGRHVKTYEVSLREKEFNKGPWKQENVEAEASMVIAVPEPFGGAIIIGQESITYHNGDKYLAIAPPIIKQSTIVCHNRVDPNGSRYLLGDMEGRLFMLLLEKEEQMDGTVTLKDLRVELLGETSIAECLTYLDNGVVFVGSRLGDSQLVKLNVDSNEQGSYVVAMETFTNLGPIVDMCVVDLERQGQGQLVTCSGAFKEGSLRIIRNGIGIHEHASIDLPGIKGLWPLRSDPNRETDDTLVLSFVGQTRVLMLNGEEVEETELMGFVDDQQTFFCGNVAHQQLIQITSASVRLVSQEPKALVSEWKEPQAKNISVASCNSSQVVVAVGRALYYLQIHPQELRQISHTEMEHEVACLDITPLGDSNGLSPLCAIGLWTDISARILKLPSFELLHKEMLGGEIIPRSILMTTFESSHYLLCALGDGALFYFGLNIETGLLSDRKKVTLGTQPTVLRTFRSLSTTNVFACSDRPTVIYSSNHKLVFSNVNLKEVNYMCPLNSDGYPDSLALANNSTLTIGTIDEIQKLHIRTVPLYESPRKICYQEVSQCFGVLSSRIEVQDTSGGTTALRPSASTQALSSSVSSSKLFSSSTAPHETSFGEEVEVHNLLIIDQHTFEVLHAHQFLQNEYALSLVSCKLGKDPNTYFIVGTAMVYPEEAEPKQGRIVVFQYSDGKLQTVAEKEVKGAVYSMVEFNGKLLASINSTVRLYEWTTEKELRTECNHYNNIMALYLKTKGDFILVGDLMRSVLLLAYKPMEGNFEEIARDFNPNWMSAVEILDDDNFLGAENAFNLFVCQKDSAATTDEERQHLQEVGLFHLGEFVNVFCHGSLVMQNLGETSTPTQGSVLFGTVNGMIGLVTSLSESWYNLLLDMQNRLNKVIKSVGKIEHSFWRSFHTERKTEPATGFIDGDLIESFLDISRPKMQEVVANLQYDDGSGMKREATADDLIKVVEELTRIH

IKZF1 = target: T2, IKZF1 (Homo sapiens, UniProt Q13422+Q96SW2); assay: Western-blot assay, substrate protein degradation in hPBMCs: IKZF1; settings: for IKZF1 substrate protein remaining %: compounds at 50 nM and 500 nM, 24 hours; for substrate protein remaining % IKZF1: 24 hours of compound treatment, 50 nM and 500 nM
T2 construct: effects of the compounds of the present disclosure on the expression of target proteins in cells; endogenous in cells; host or cells: human PBMCs (hPBMCs)
T2 sequence (Q13422 whole entry): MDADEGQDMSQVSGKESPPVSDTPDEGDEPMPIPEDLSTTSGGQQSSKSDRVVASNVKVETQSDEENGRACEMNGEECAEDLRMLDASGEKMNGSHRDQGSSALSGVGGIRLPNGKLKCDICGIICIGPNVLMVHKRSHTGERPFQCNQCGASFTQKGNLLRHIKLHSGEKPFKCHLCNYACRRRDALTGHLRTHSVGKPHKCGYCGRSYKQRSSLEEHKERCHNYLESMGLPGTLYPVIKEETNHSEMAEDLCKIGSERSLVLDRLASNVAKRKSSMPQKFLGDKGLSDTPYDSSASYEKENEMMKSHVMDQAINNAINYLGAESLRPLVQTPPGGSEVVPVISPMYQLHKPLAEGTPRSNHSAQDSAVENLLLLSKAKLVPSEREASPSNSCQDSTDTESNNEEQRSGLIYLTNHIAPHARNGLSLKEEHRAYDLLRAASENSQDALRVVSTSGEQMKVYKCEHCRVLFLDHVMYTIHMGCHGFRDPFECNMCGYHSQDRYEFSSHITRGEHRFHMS
T2 sequence (Q96SW2 whole entry): as the sequence (Q96SW2 whole entry) above
T2 sequence (Q16531 whole entry partner): as the sequence (Q16531 whole entry partner) above

IKZF2 = target: T3, IKZF2 (Homo sapiens, UniProt Q96SW2+Q9UKS7); assay: Western-blot assay, substrate protein degradation in hPBMCs: IKZF2; settings: for IKZF2 substrate protein remaining %: compounds at 50 nM and 500 nM, 24 hours; for substrate protein remaining % IKZF2: 24 hours of compound treatment, 50 nM and 500 nM
T3 construct: effects of the compounds of the present disclosure on the expression of target proteins in cells; endogenous in cells; host or cells: human PBMCs (hPBMCs)
T3 sequence (Q9UKS7 whole entry): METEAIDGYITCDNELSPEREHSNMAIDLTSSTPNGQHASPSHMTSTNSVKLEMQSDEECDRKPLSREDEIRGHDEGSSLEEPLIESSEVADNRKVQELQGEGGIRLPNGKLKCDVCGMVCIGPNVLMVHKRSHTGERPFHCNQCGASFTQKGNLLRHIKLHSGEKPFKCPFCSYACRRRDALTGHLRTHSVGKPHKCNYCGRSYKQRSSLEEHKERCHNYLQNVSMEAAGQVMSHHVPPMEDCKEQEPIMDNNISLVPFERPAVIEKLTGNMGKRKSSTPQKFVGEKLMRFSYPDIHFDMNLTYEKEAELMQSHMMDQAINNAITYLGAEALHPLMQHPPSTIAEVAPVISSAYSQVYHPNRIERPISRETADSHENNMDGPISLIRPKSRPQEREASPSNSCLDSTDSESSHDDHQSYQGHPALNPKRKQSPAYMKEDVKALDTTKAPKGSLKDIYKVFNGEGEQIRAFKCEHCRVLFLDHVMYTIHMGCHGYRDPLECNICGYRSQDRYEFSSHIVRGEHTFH
T3 sequence (Q96SW2 whole entry): as the sequence (Q96SW2 whole entry) above
T3 sequence (Q16531 whole entry partner): as the sequence (Q16531 whole entry partner) above

IKZF3 = target: T4, IKZF3 (Homo sapiens, UniProt Q96SW2+Q9UKT9); assay: Western-blot assay, substrate protein degradation in hPBMCs: IKZF3; settings: for IKZF3 substrate protein remaining %: compounds at 50 nM and 500 nM, 24 hours; for substrate protein remaining % IKZF3: 24 hours of compound treatment, 50 nM and 500 nM
T4 construct: effects of the compounds of the present disclosure on the expression of target proteins in cells; endogenous in cells; host or cells: human PBMCs (hPBMCs)

CK1α = target: T5, CK1α (Homo sapiens, UniProt P48729+Q96SW2); assay: Western-blot assay, substrate protein degradation in hPBMCs: CK1α; settings: for CK1α substrate protein remaining %: compounds at 50 nM and 500 nM, 24 hours; for substrate protein remaining % CK1α: 24 hours of compound treatment, 50 nM and 500 nM
T5 construct: effects of the compounds of the present disclosure on the expression of target proteins in cells; endogenous in cells; host or cells: human PBMCs (hPBMCs)
T5 sequence (P48729 whole entry): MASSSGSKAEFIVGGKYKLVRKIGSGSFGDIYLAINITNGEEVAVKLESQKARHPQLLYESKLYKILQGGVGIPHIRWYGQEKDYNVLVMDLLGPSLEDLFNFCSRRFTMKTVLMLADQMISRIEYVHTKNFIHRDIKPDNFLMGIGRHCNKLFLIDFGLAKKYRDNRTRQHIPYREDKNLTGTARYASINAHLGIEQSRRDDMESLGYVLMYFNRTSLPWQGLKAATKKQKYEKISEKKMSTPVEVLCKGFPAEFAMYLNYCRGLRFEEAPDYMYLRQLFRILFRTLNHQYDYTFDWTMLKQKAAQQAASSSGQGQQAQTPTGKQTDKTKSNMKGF
T5 sequence (Q96SW2 whole entry): as the sequence (Q96SW2 whole entry) above
T5 sequence (Q16531 whole entry partner): as the sequence (Q16531 whole entry partner) above

GSPT1 = target: T6, GSPT1 (Homo sapiens, UniProt P15170+Q96SW2); assay: Western-blot assay, substrate protein degradation in hPBMCs: GSPT1; settings: for GSPT1 substrate protein remaining %: compounds at 50 nM and 500 nM, 24 hours; for substrate protein remaining % GSPT1: 24 hours of compound treatment, 50 nM and 500 nM
T6 construct: effects of the compounds of the present disclosure on the expression of target proteins in cells; endogenous in cells; host or cells: human PBMCs (hPBMCs)
T6 sequence (P15170 whole entry): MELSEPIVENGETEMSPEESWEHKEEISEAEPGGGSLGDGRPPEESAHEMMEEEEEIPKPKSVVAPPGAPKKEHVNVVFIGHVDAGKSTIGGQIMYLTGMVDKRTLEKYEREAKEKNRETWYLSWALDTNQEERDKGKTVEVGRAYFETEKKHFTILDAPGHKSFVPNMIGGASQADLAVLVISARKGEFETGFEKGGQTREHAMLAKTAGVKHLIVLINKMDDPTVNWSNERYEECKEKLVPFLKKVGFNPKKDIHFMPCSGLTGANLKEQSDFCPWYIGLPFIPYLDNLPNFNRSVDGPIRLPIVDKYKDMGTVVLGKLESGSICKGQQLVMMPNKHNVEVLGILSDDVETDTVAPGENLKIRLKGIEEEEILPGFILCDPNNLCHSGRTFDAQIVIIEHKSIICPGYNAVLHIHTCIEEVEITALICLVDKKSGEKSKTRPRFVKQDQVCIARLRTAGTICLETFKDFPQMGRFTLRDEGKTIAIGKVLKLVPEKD
T6 sequence (Q96SW2 whole entry): as the sequence (Q96SW2 whole entry) above
T6 sequence (Q16531 whole entry partner): as the sequence (Q16531 whole entry partner) above

Compound | WEE1 substrate protein remaining % (WEE1) | IKZF1 substrate protein remaining % (IKZF1) | IKZF2 substrate protein remaining % (IKZF2) | IKZF3 substrate protein remaining % (IKZF3) | CK1α substrate protein remaining % (CK1α) | GSPT1 substrate protein remaining % (GSPT1) | substrate protein remaining % WEE1 (WEE1) | substrate protein remaining % IKZF1 (IKZF1) | substrate protein remaining % IKZF2 (IKZF2) | substrate protein remaining % IKZF3 (IKZF3) | substrate protein remaining % CK1α (CK1α) | substrate protein remaining % GSPT1 (GSPT1)
O=C1CCN(N2Cc3cc(CN4CCN(c5ccc(Br)cc5)CC4)ccc3C2=O)C(=O)N1 [GT-06768, 1-(5-((4-(4-bromophenyl)piperazin-1-yl)methyl)-1-oxoisoindolin-2-yl)dihydropyrimidine-2,4(1H,3H)-dione] | A ("A" is defined as 0% ≤ substrate protein remaining % ≤ 80%) | B ("B" is defined as 80%< substrate protein remaining %≤ 100%) | B ("B" is defined as 80%< substrate protein remaining %≤ 100%) | A ("A" is defined as 0% ≤ substrate protein remaining % ≤ 80%) | A ("A" is defined as 0% ≤ substrate protein remaining % ≤ 80%) | A ("A" is defined as 0% ≤ substrate protein remaining % ≤ 80%) |  |  |  |  |  | 
O=C1CCN(N2Cc3cc(CN4CCN(c5c[nH]c6ncccc56)CC4)ccc3C2=O)C(=O)N1 [GT-07502, 1-(5-((4-(1H-pyrrolo[2,3-b]pyridin-3-yl)piperazin-1-yl)methyl)-1-oxoisoindolin-2-yl)dihydropyrimidine-2,4(1H,3H)-dione] |  |  |  |  |  |  | A (0% ≤ substrate protein remaining % ≤ 80%) | A (0% ≤ substrate protein remaining % ≤ 80%) | B (80%< substrate protein remaining %≤ 100%) | B (80%< substrate protein remaining %≤ 100%) | A (0% ≤ substrate protein remaining % ≤ 80%) | A (0% ≤ substrate protein remaining % ≤ 80%)
O=C1CCN(N2Cc3cc(CN4CCN(c5cc(F)ccc5F)CC4)ccc3C2=O)C(=O)N1 [GT-06779, 1-(5-((4-(2,5-difluorophenyl)piperazin-1-yl)methyl)-1-oxoisoindolin-2-yl)dihydropyrimidine-2,4(1H,3H)-dione] | B ("B" is defined as 80%< substrate protein remaining %≤ 100%) | B ("B" is defined as 80%< substrate protein remaining %≤ 100%) | B ("B" is defined as 80%< substrate protein remaining %≤ 100%) | B ("B" is defined as 80%< substrate protein remaining %≤ 100%) | A ("A" is defined as 0% ≤ substrate protein remaining % ≤ 80%) | B ("B" is defined as 80%< substrate protein remaining %≤ 100%) |  |  |  |  |  | 
O=C1CCN(N2C(=O)c3ccc(CN4CCC(c5noc6ccccc56)CC4)cc3C2=O)C(=O)N1 [GT-07522, 5-((4-(benzo[d]isoxazol-3-yl)piperidin-1-yl)methyl)-2-(2,4-dioxotetrahydropyrimidin-1(2H)-yl)isoindoline-1,3-dione] |  |  |  |  |  |  | A (0% ≤ substrate protein remaining % ≤ 80%) | A (0% ≤ substrate protein remaining % ≤ 80%) | A (0% ≤ substrate protein remaining % ≤ 80%) | B (80%< substrate protein remaining %≤ 100%) | A (0% ≤ substrate protein remaining % ≤ 80%) | A (0% ≤ substrate protein remaining % ≤ 80%)
O=C1CCN(N2Cc3cc(CN4CCC(n5c(=O)[nH]c6cc(F)ccc65)CC4)ccc3C2=O)C(=O)N1 [GT-07579, 1-(5-((4-(5-fluoro-2-oxo-2,3-dihydro-1H-benzo[d]imidazol-1-yl)piperidin-1-yl)methyl)-1-oxoisoindolin-2-yl)dihydropyrimidine-2,4(1H,3H)-dione] |  |  |  |  |  |  | A (0% ≤ substrate protein remaining % ≤ 80%) | A (0% ≤ substrate protein remaining % ≤ 80%) | A (0% ≤ substrate protein remaining % ≤ 80%) | B (80%< substrate protein remaining %≤ 100%) | B (80%< substrate protein remaining %≤ 100%) | A (0% ≤ substrate protein remaining % ≤ 80%)
O=C1CCN(N2C(=O)c3ccc(CN4CCC(c5cccc(F)c5Cl)CC4)cc3C2=O)C(=O)N1 [GT-06895, 5-((4-(2-chloro-3-fluorophenyl)piperidin-1-yl)methyl)-2-(2,4-dioxotetrahydropyrimidin-1(2H)-yl)isoindoline-1,3-dione] | B ("B" is defined as 80%< substrate protein remaining %≤ 100%) | A ("A" is defined as 0% ≤ substrate protein remaining % ≤ 80%) | B ("B" is defined as 80%< substrate protein remaining %≤ 100%) | B ("B" is defined as 80%< substrate protein remaining %≤ 100%) | B ("B" is defined as 80%< substrate protein remaining %≤ 100%) | B ("B" is defined as 80%< substrate protein remaining %≤ 100%) |  |  |  |  |  | 
O=C1CCN(N2C(=O)c3ccc(CN4CCN(c5cccc(F)c5F)CC4)cc3C2=O)C(=O)N1 [GT-06793, 5-((4-(2,3-difluorophenyl)piperazin-1-yl)methyl)-2-(2,4-dioxotetrahydropyrimidin-1(2H)-yl)isoindoline-1,3-dione] | B ("B" is defined as 80%< substrate protein remaining %≤ 100%) | B ("B" is defined as 80%< substrate protein remaining %≤ 100%) | A ("A" is defined as 0% ≤ substrate protein remaining % ≤ 80%) | B ("B" is defined as 80%< substrate protein remaining %≤ 100%) | B ("B" is defined as 80%< substrate protein remaining %≤ 100%) | B ("B" is defined as 80%< substrate protein remaining %≤ 100%) |  |  |  |  |  | 
O=C1CCN(N2C(=O)c3ccc(CN4CC(C5CCOc6cc(F)ccc65)C4)cc3C2=O)C(=O)N1 (stereo not drawn) [GT-07715, 2-(2,4-dioxotetrahydropyrimidin-1(2H)-yl)-5-((3-(7-fluorochroman-4-yl)azetidin-1-yl)methyl)isoindoline-1,3-dione] |  |  |  |  |  |  | B (80%< substrate protein remaining %≤ 100%) | B (80%< substrate protein remaining %≤ 100%) | B (80%< substrate protein remaining %≤ 100%) | B (80%< substrate protein remaining %≤ 100%) | A (0% ≤ substrate protein remaining % ≤ 80%) | A (0% ≤ substrate protein remaining % ≤ 80%)
O=C1CCN(N2C(=O)c3ccc(CN4CCN(c5nc(N6CCOCC6)nc6c5SCC6)CC4)cc3C2=O)C(=O)N1 [GT-08450, 2-(2,4-dioxotetrahydropyrimidin-1(2H)-yl)-5-((4-(2-morpholino-6,7-dihydrothieno[3,2-d]pyrimidin-4-yl)piperazin-1-yl)methyl)isoindoline-1,3-dione] |  |  |  |  |  |  | B (80%< substrate protein remaining %≤ 100%) | B (80%< substrate protein remaining %≤ 100%) | B (80%< substrate protein remaining %≤ 100%) | B (80%< substrate protein remaining %≤ 100%) | B (80%< substrate protein remaining %≤ 100%) | A (0% ≤ substrate protein remaining % ≤ 80%)
CC1(C)CC(c2ccc(Cl)cc2)=C(CN2CCN(Cc3ccc4c(c3)CN(N3CCC(=O)NC3=O)C4=O)CC2)CO1 [GT-07332, 1-(5-((4-((4-(4-chlorophenyl)-6,6-dimethyl-5,6-dihydro-2H-pyran-3-yl)methyl)piperazin-1-yl)methyl)-1-oxoisoindolin-2-yl)dihydropyrimidine-2,4(1H,3H)-dione] |  |  |  |  |  |  | A (0% ≤ substrate protein remaining % ≤ 80%) | A (0% ≤ substrate protein remaining % ≤ 80%) | B (80%< substrate protein remaining %≤ 100%) | A (0% ≤ substrate protein remaining % ≤ 80%) | B (80%< substrate protein remaining %≤ 100%) | A (0% ≤ substrate protein remaining % ≤ 80%)
O=C1CCN(N2C(=O)c3ccc(CN4CCN(c5noc6cc(F)ccc56)CC4)cc3C2=O)C(=O)N1 [GT-07524, 2-(2,4-dioxotetrahydropyrimidin-1(2H)-yl)-5-((4-(6-fluorobenzo[d]isoxazol-3-yl)piperazin-1-yl)methyl)isoindoline-1,3-dione] |  |  |  |  |  |  | A (0% ≤ substrate protein remaining % ≤ 80%) | A (0% ≤ substrate protein remaining % ≤ 80%) | A (0% ≤ substrate protein remaining % ≤ 80%) | B (80%< substrate protein remaining %≤ 100%) | B (80%< substrate protein remaining %≤ 100%) | A (0% ≤ substrate protein remaining % ≤ 80%)
Cn1cc(C2CCN(Cc3ccc4c(c3)C(=O)N(N3CCC(=O)NC3=O)C4=O)CC2)c2ccc(F)cc21 [GT-07581, 2-(2,4-dioxotetrahydropyrimidin-1(2H)-yl)-5-((4-(6-fluoro-1-methyl-1H-indol-3-yl)piperidin-1-yl)methyl)isoindoline-1,3-dione] |  |  |  |  |  |  | A (0% ≤ substrate protein remaining % ≤ 80%) | A (0% ≤ substrate protein remaining % ≤ 80%) | A (0% ≤ substrate protein remaining % ≤ 80%) | B (80%< substrate protein remaining %≤ 100%) | B (80%< substrate protein remaining %≤ 100%) | A (0% ≤ substrate protein remaining % ≤ 80%)
